Among the data in patent publication US20070299084A1, “Indole Derivatives Useful for Treating Resistance to Antitumor Agents” (NIKEM RESE S.R.L., priority 2004, published 2007) are IC50 values, retold here.

In data set [1] the target is Vacuolar ATPase (bafilomycin sensitive ATPase activity) (Homo sapiens, UniProt P27449+Q13488). Kind of data set: Vacuolar ATPase inhibition in human osteoclastoma (hOc) microsomal fraction. In kind it is biochemical. The following applies: 30 min, 37° C., read-out: v-ATPase Activity (IC50, μM) hOc. The method, then: 1.1 Determination of Vacuolar ATPase Inhibition in Human Osteoclastoma (hOc)
Vacuolar ATPase (bafilomycin sensitive ATPase activity), sequence (P38606 whole entry): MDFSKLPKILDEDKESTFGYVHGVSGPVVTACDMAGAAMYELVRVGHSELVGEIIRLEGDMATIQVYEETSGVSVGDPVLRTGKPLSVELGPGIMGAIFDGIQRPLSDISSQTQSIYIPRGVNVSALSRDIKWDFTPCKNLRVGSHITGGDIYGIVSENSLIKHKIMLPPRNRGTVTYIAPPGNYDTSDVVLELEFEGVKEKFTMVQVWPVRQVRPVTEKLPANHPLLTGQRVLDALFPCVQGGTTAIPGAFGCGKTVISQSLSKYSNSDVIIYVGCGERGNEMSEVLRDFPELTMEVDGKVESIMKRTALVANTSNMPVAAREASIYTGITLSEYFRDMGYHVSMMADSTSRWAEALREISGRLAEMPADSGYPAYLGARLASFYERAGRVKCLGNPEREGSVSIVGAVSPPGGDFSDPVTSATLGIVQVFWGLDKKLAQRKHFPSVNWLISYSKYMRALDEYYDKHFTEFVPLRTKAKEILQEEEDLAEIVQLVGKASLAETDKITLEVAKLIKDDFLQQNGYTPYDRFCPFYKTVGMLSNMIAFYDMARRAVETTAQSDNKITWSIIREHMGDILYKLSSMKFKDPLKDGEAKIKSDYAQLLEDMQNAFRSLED
Vacuolar ATPase (bafilomycin sensitive ATPase activity), sequence (Q13488 whole entry): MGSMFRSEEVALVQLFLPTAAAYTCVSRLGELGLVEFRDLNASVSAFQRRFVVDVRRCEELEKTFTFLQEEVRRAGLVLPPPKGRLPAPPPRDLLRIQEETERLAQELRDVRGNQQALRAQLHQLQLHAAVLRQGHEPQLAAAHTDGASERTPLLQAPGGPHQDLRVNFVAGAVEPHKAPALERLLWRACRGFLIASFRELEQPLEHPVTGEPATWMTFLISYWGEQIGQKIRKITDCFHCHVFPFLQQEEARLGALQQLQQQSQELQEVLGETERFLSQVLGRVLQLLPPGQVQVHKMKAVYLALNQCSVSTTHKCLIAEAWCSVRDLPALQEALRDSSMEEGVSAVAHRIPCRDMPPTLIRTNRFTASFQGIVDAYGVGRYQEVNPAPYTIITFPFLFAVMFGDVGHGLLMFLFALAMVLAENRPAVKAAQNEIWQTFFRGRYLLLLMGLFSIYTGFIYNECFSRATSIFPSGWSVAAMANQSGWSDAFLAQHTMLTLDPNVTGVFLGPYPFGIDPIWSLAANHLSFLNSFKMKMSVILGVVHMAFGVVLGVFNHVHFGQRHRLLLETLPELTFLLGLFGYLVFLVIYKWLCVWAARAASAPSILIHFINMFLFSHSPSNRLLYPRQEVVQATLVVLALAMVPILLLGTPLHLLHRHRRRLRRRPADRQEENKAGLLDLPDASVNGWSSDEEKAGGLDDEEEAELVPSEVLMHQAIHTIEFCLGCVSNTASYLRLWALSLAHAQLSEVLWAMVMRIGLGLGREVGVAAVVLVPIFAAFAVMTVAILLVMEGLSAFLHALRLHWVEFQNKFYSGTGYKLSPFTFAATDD
Vacuolar ATPase (bafilomycin sensitive ATPase activity), sequence (P27449 whole entry): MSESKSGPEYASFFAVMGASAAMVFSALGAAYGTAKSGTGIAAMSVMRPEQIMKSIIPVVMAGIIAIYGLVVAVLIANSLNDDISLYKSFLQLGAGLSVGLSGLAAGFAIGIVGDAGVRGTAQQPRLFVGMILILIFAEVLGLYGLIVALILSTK
Osteoclast-like giant cells isolated from human osteoclastoma are homogenized using a glass-teflon homogeniser (1000 rpm) and the material is centrifuged for 20 minutes at 6000 g. The resultant pellet is resuspended and centrifuged at 100000 g for 60 minutes to sediment the microsomal fraction. The resultant pellet is resuspended in medium at pH 7.4 and stored under liquid nitrogen.
Inhibition of bafilomycin sensitive ATPase activity is assayed by measuring the release of inorganic phosphate during 30 minutes of incubation, at 37° C., of the human osteoclastoma microsomal fraction in 96-well plates. The reaction medium contains 1 mM ATP, 10 mM Hepes-Tris buffer pH 8, 50 mM KCl, 5 μM valinomycin, 5 μM nigericin, 1 mM CDTA-Tris, 100 μM ammonium molybdate, 0.2 M sucrose and the microsomal fraction ([…] protein/ml). The reaction is initiated by adding MgSO4 and terminated, after 30 minutes, by adding 4 volumes of the reagent malachite green, prepared according to Chan K., Anal. Biochem. 157, 375-380, 1986.

For data set [2], the system named is HT29 cells (human colon carcinoma). Kind of data set: Antiproliferative activity, 72 h treatment, SRB assay, HT29. In kind it is cell-based. The note with it: 72 h. treatment; read-out: Antiproliferative activity (IC50 ± S.D., μM) HT-29. A general note: In SRB staining, fixed cells bind dye roughly in proportion to their protein.
Data set [3] deals with HT29/Mit cells (mitoxantrone-resistant human colon carcinoma, BCRP overexpression). Kind of data set: Antiproliferative activity, 72 h treatment, SRB assay, HT29/Mit. The note with it: read-out: Antiproliferative activity (IC50 ± S.D., μM) HT-29/Mit; 72 h. treatment. The method, then:
HT29 and HT29/Mit (line obtained by prolonged exposure to mitoxantrone, and characterised by overerexpression of BCRP, which confers cross resistance to topotecan, irinotecan and to its metabolite SN38): maintained in McCoy 5A medium+10% FCS.
The cells (HT29 and HT29/Mit:. 40,000 cells/ml, LoVo, LoVo/Dx and HCT116: 50,000 cells/ml) are seeded in 100 μl of the respective culture media in 96-well plates. 24 hours after seeding, an aliquot (10 μl) of drug at the various concentrations is added. In the samples in which the effect of the combination of two compounds is to be tested the inhibitor is added immediately before the cytotoxic. For each dose or combination of doses/drugs the effect of the treatment is determined in 4-8 replicates.
After 72 hours of treatment the antiproliferative effect is evaluated using the sulforhodamine B (SRB) assay: the cells are fixed by adding 25 μl of 50% TCA to each well and left for 1 hour at 4° C. After washing them with water and allowing them to dry, 100 μl of 0.4% SRB in 1% acetic acid are added and left for 30 minutes at room temperature. After 4 washes in 1% acetic acid, they are left to dry, then the dye fixed by the proteins is dissolved under basic conditions with 100 μl 10 mM cold Tris and the solution is read using a spectrophotometer at 550 nm.
Percentage cell growth is calculated as the optical density of treated samples compared to the optical density of controls (untreated cells).
The Combination Index (C.I.) was determined according to Kern's method, 1988 (who continued from Drewinko B, 1976) (Kern D. H., Cancer Res. 48, 117-121, 1988; Drewinko B., Cancer Biochem. Biophys. 1, 187-195, 1976) by means of the following formula: […], where SFa and SFb are the fractions of cells surviving to treatment with compound a and b, respectively; SFab is the fraction surviving to the combination of compounds a and b.

Data set [4] has as its system HepG2 cells (human hepatic carcinoma). Kind of data set: Antiproliferative activity, 48 h treatment, ATPlite luminescence assay, HepG2. In kind it is cell-based. The note with it: read-out: Antiproliferative activity (IC50 ± S.D., μM) HepG2. The method, then: HepG2: maintained in EMEM medium+10% FCS.
24 hours after seeding, an aliquot (10 μl) of the drug at the various concentrations is added (for each concentration there are 3 replicates). After 48 hours of treatment the antiproliferative effect is evaluated with a luminescence assay (Perkin Elmer Life Sciences ATPlite):
50 μl of a lysis solution are added to each well followed by an equal volume of a solution containing luciferase and D-luciferin. The ATP present in all the metabolically active cells brings about the transformation reaction of D-luciferin, catalysed by luciferase, to produce a luminescent signal as described in the following scheme: ATP+D-luciferin+O2→Oxyluciferin+AMP+PPi+CO2+Light
The luminescence produced (expressed in counts per second, CPS) is measured by means of a microplate scintillation analyzer (Perkin Elmer Life Sciences Top Count).
Percentage inhibition of luminescence in the treated cells compared to the control is calculated; concentration-response curves are then analysed using Grafit v.5.0.
(Cellular ATP, detected with luciferase, serves as a proxy for viable cell number.)

A value given as a limit tells only on which side of the number the result lay.

Turning to `CO/C1=C\C(C)=C\[C@@H](C)[C@@H](O)[C@@H](C)C/C(C)=C/C=C/[C@H](OC)[C@@H]([C@@H](C)[C@@H](O)[C@H](C)[C@@]2(O)C[C@@H](O)[C@H](C)[C@@H](C(C)C)O2)OC1=O` [Bafilomycin A1, reference compound], the IC50 in data set [1] is 0.0001 µM; in data set [2], 0.003 ± 0.002 µM; in data set [3], 0.005 µM; in data set [4] it was < 0.006 µM.
